# According to US7713967B2, “Therapeutic substituted hydantoins, and related compounds” (Allergan, Inc., priority 2008, dated 2010):
# Tested on: lashes and adjacent hairs
# Test: Clinical observation of lashes and adjacent hairs in glaucoma patients treated in one eye
# Assay type: in vivo
# Text: In the course of treating patients having glaucoma, treatment may only be appropriate in one eye. […] The lash appearance on the lids of the treated eyes would have appeared quite attractive if it represented a bilateral phenomenon. As a result of its asymmetric nature, the long lashes on one side could be construed as disturbing from a cosmetic standpoint. A systemic examination was preformed as a result of the asymmetric phenomenon. It soon became apparent that this altered appearance was not an isolated finding. […] Definite differences could be identified to varying degrees in the lashes and adjacent hairs of all patients who were taking the drug on a unilateral basis for longer than 6 months.
# The changes in the lashes were apparent on gross inspection in several patients once attention was focused on the issue. In those with light colored hair and lashes, the differences were only seen easily with the aid of the high magnification and lighting capabilities of the slit lamp biomicroscope. In the course of glaucoma follow-up examination, attention is generally immediately focused on the eye itself. As a result of the high power magnification needed only one eye is seen at a time and the eye is seen at a high enough power that the lashes are not in focus. […]
smiles,measurement,setting,value
CCNC(=O)CCC/C=C\C[C@@H]1[C@@H](/C=C/[C@@H](O)CCc2ccccc2)[C@H](O)C[C@@H]1O [bimatoprost],lash appearance in the treated eye versus the non-treated eye,glaucoma patient treated in one eye only,"longer, thicker, and fuller"
same,hair growth in treated versus control areas,"multiple parameters of hair appearance, many subjects",stimulated
